In ChEMBL document CHEMBL1201862, “PubChem BioAssay data set” (2004):
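Compound exposure: 48 hours, 5 concentrations, 96-well plates. GI50: concentration for 50% inhibition of growth.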 Activity calls are given as the source filed them. Cut-off read from the data, not from the text of the source: active = GI50 up to about 1.1 µM and inactive = higher.

Assays:
Experiment in all cases: inhibition of tumour cell growth, NCI panel, 48 h
[1] = tested on: HCT-116
[2] = tested on: CCRF-CEM
[3] = tested on: Malme-3M
[4] = tested on: RPMI-8226
[5] = tested on: OVCAR-4
[6] = tested on: EKVX
[7] = tested on: OVCAR-5
[8] = tested on: OVCAR-3
[9] = tested on: CAKI-1
[10] = tested on: K562
[11] = tested on: U-251
[12] = tested on: A498
[13] = tested on: SNB-75
[14] = tested on: XF498
[15] = tested on: HT-29
[16] = tested on: OVCAR-8
[17] = tested on: DMS-273
[18] = tested on: HCT-15
[19] = tested on: HOP-62
[20] = tested on: HCC 2998
[21] = tested on: HOP-18
[22] = tested on: SK-MEL-2
[23] = tested on: M14
[24] = tested on: SW-620
[25] = tested on: SF-295
[26] = tested on: UACC-257
[27] = tested on: HL-60
[28] = tested on: MOLT-4
[29] = tested on: SF-539
[30] = tested on: UACC-62
[31] = tested on: IGROV-1
[32] = tested on: NCI-H460
[33] = tested on: NCI-H23
[34] = tested on: KM12
[35] = tested on: HOP-92
[36] = tested on: DMS-114
[37] = tested on: KM-20L2
[38] = tested on: TK-10
[39] = tested on: SK-MEL-5
[40] = tested on: DLD-1
[41] = tested on: ACHN
[42] = tested on: M19-MEL
[43] = tested on: SNB-78
[44] = tested on: SK-OV-3
[45] = tested on: LXFL 529
[46] = tested on: A549
[47] = tested on: 786-0
[48] = tested on: SK-MEL-28
[49] = tested on: LOX IMVI
[50] = tested on: COLO 205
[51] = tested on: UO-31
[52] = tested on: SNB-19
[53] = tested on: RXF 393
[54] = tested on: SR
[55] = tested on: SN12C
[56] = tested on: NCI-H226
[57] = tested on: SF-268

## CCn1c(C)nn2c(=O)c3ccccc3nc2c1=O
[1]
  GI50: > 100 µM (inactive)
[2]
  GI50: > 100 µM (inactive)
[3]
  GI50: > 100 µM (inactive)
[4]
  GI50: > 100 µM (inactive)
[5]
  GI50: > 100 µM (inactive)
[6]
  GI50: > 100 µM (inactive)
[7]
  GI50: > 100 µM (inactive)
[8]
  GI50: > 100 µM (inactive)
[9]
  GI50: > 100 µM (inactive)
[10]
  GI50: > 100 µM (inactive)
[11]
  GI50: > 100 µM (inactive)
[12]
  GI50: > 100 µM (inactive)
[13]
  GI50: > 100 µM (inactive)
[14]
  GI50: > 100 µM (inactive)
[15]
  GI50: > 100 µM (inactive)
[16]
  GI50: > 100 µM (inactive)
[17]
  GI50: > 100 µM (inactive)
[18]
  GI50: > 100 µM
[19]
  GI50: > 100 µM (inactive)
[20]
  GI50: > 100 µM (inactive)
[21]
  GI50: > 100 µM (inactive)
[22]
  GI50: > 100 µM (inactive)
[23]
  GI50: > 100 µM (inactive)
[24]
  GI50: > 100 µM (inactive)
[25]
  GI50: > 100 µM (inactive)
[26]
  GI50: > 100 µM (inactive)
[27]
  GI50: > 100 µM (inactive)
[28]
  GI50: > 100 µM (inactive)
[29]
  GI50: > 100 µM (inactive)
[30]
  GI50: > 100 µM (inactive)
[31]
  GI50: > 100 µM (inactive)
[32]
  GI50: > 100 µM (inactive)
[33]
  GI50: > 100 µM (inactive)
[34]
  GI50: > 100 µM (inactive)
[35]
  GI50: 59.7 µM (inactive)
[36]
  GI50: > 100 µM (inactive)
[37]
  GI50: > 100 µM (inactive)
[38]
  GI50: > 100 µM (inactive)
[39]
  GI50: > 100 µM (inactive)
[40]
  GI50: > 100 µM (inactive)
[41]
  GI50: > 100 µM (inactive)
[42]
  GI50: > 100 µM (inactive)
[43]
  GI50: > 100 µM (inactive)
[44]
  GI50: > 100 µM (inactive)
[45]
  GI50: > 100 µM (inactive)
[46]
  GI50: > 100 µM (inactive)
[47]
  GI50: > 100 µM (inactive)
[48]
  GI50: > 100 µM (inactive)
[49]
  GI50: > 100 µM (inactive)
[50]
  GI50: > 100 µM (inactive)

## CN(C)C=C1C(=O)N(C)C(=O)N(C)C1=O
[1]
  GI50: > 100 µM (inactive)
[2]
  GI50: > 100 µM (inactive)
[3]
  GI50: > 100 µM (inactive)
[4]
  GI50: > 100 µM (inactive)
[51]
  GI50: > 100 µM (inactive)
[52]
  GI50: > 100 µM (inactive)
[5]
  GI50: > 100 µM (inactive)
[6]
  GI50: > 100 µM (inactive)
[7]
  GI50: > 100 µM (inactive)
[8]
  GI50: > 100 µM (inactive)
[9]
  GI50: > 100 µM (inactive)
[10]
  GI50: > 100 µM (inactive)
[11]
  GI50: > 100 µM (inactive)
[12]
  GI50: > 100 µM (inactive)
[13]
  GI50: > 100 µM (inactive)
[14]
  GI50: > 100 µM (inactive)
[15]
  GI50: > 100 µM (inactive)
[53]
  GI50: > 100 µM (inactive)
[16]
  GI50: > 100 µM (inactive)
[54]
  GI50: > 100 µM (inactive)
[17]
  GI50: > 100 µM (inactive)
[18]
  GI50: > 100 µM
[20]
  GI50: > 100 µM (inactive)
[21]
  GI50: > 100 µM (inactive)
[22]
  GI50: > 100 µM (inactive)
[23]
  GI50: > 100 µM (inactive)
[24]
  GI50: > 100 µM (inactive)
[25]
  GI50: > 100 µM (inactive)
[26]
  GI50: > 100 µM (inactive)
[27]
  GI50: > 100 µM (inactive)
[28]
  GI50: > 100 µM (inactive)
[29]
  GI50: > 100 µM (inactive)
[30]
  GI50: > 100 µM (inactive)
[32]
  GI50: > 100 µM (inactive)
[33]
  GI50: > 100 µM (inactive)
[34]
  GI50: > 100 µM (inactive)
[35]
  GI50: > 100 µM (inactive)
[36]
  GI50: > 100 µM (inactive)
[37]
  GI50: > 100 µM (inactive)
[38]
  GI50: > 100 µM (inactive)
[55]
  GI50: > 100 µM (inactive)
[39]
  GI50: > 100 µM (inactive)
[40]
  GI50: > 100 µM (inactive)
[41]
  GI50: > 100 µM (inactive)
[42]
  GI50: > 100 µM (inactive)
[43]
  GI50: > 100 µM (inactive)
[45]
  GI50: > 100 µM (inactive)
[46]
  GI50: > 100 µM (inactive)
[47]
  GI50: > 100 µM (inactive)
[56]
  GI50: > 100 µM (inactive)
[48]
  GI50: > 100 µM (inactive)
[49]
  GI50: > 100 µM (inactive)

## CC(SC(=S)N1CCOCC1)c1cc2oc(=O)n(C)c2cc1Cl (configuration not stated)
[1]
  GI50: > 100 µM (inactive)
[2]
  GI50: 19.8 µM (inactive)
[3]
  GI50: > 100 µM (inactive)
[4]
  GI50: 58.2 µM (inactive)
[51]
  GI50: > 100 µM (inactive)
[52]
  GI50: > 100 µM (inactive)
[5]
  GI50: > 100 µM (inactive)
[6]
  GI50: > 100 µM (inactive)
[57]
  GI50: > 100 µM (inactive)
[7]
  GI50: > 100 µM (inactive)
[8]
  GI50: > 100 µM (inactive)
[9]
  GI50: > 100 µM (inactive)
[10]
  GI50: 33.3 µM (inactive)
[11]
  GI50: > 100 µM (inactive)
[13]
  GI50: 76 µM (inactive)
[14]
  GI50: > 100 µM (inactive)
[15]
  GI50: > 100 µM (inactive)
[53]
  GI50: > 100 µM (inactive)
[16]
  GI50: > 100 µM (inactive)
[54]
  GI50: 30.4 µM (inactive)
[17]
  GI50: > 100 µM (inactive)
[18]
  GI50: > 100 µM
[19]
  GI50: > 100 µM (inactive)
[20]
  GI50: > 100 µM (inactive)
[21]
  GI50: > 100 µM (inactive)
[22]
  GI50: > 100 µM (inactive)
[23]
  GI50: > 100 µM (inactive)
[24]
  GI50: > 10 µM (inactive)
[25]
  GI50: > 100 µM (inactive)
[26]
  GI50: 74.5 µM (inactive)
[27]
  GI50: 39.4 µM (inactive)
[28]
  GI50: 56.1 µM (inactive)
[29]
  GI50: 76 µM (inactive)
[30]
  GI50: > 100 µM (inactive)
[31]
  GI50: > 10 µM (inactive)
[32]
  GI50: > 100 µM (inactive)
[33]
  GI50: > 100 µM (inactive)
[34]
  GI50: > 100 µM (inactive)
[35]
  GI50: > 10 µM (inactive)
[36]
  GI50: 84.5 µM (inactive)
[37]
  GI50: > 100 µM (inactive)
[38]
  GI50: > 100 µM (inactive)
[55]
  GI50: > 100 µM (inactive)
[39]
  GI50: 62.7 µM (inactive)
[40]
  GI50: > 100 µM (inactive)
[41]
  GI50: > 100 µM (inactive)
[42]
  GI50: > 100 µM (inactive)
[43]
  GI50: > 100 µM (inactive)
[44]
  GI50: > 100 µM (inactive)
[45]
  GI50: 57.4 µM (inactive)
[46]
  GI50: 42.2 µM (inactive)
[47]
  GI50: > 100 µM (inactive)
[48]
  GI50: > 100 µM (inactive)
[49]
  GI50: 40.9 µM (inactive)
[50]
  GI50: > 100 µM (inactive)
